Data taken from patent publication US11261177B2, “Benzoxazinone derivatives useful as herbicides” (REDAG CROP PROTECTION LTD, priority 2017, dated 2022).

Assays:
Assay type in all cases: in vivo
[1] = tested on: 2 weed species (Stellaria media—Chickweed and Lolium perenne); assay: Herbicidal activity screen, summary in words over both weed species; details: pre- and post-emergence, 0.2, 1 and 5 kg/ha
Experimental: The compounds were screened at three concentrations (0.2, 1 and 5 kg/ha) against 2 weed species (Stellaria media—Chickweed and Lolium perenne). The seeds were sown in the cells of 96 cell trays (4-6 seeds per cell). For the pre-emergence assay, 75 μL of a suspension of the test compound, at the above doses, was added on top of the soil 1 day after sowing. For the post-emergence assay, the seedlings were sprayed with 200 μL of a suspension of the test compound two weeks after sowing. The formulation used is 25% acetone and 75% water/0.01% Tween 20. Each treatment was replicated three times. The plants were kept in a glasshouse (uncontrolled conditions) and assessed 7 days after treatment. A small number of compounds were tested in a first trial. A larger number of compounds were tested in a second trial. The assessment was based on the % control of plant growth in each cell.

Lolium perenne [2] = assay: Post-emergence herbicidal assay, 96 cell trays, glasshouse; details: 168 h, second trial (Table 2), Lollium, assessed 7 days after treatment, read-out: % control of plant growth; for pest or weed control at 200 g/ha: 0.2 kg/ha; for pest or weed control at 1000 g/ha: 1 kg/ha; for pest or weed control at 5000 g/ha: 5 kg/ha
Procedure, shortened: (§1)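 Compounds were applied at 0.2, 1 and 5 kg/ha in 25% acetone/75% water with 0.01% Tween 20, onto soil 1 day after sowing (pre-emergence) or sprayed on seedlings two weeks after sowing (post-emergence). Three replicates; glasshouse, uncontrolled conditions; % control of growth scored 7 days after treatment.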

[3] = tested on: Stellaria media—Chickweed; assay: as above; details: 168 h, second trial (Table 2), assessed 7 days after treatment, read-out: % control of plant growth; for pest or weed control at 200 g/ha: 0.2 kg/ha; for pest or weed control at 1000 g/ha: 1 kg/ha; for pest or weed control at 5000 g/ha: 5 kg/ha
Procedure, shortened: as §1

Lolium perenne [4] = assay: Pre-emergence herbicidal assay, 96 cell trays, glasshouse; details: 168 h, second trial (Table 2), Lollium, assessed 7 days after treatment, read-out: % control of plant growth; for pest or weed control at 200 g/ha: 0.2 kg/ha; for pest or weed control at 1000 g/ha: 1 kg/ha; for pest or weed control at 5000 g/ha: 5 kg/ha
Procedure, shortened: as §1

[5] = tested on: Stellaria media—Chickweed; assay: as above; details: 168 h, second trial (Table 2), assessed 7 days after treatment, read-out: % control of plant growth; for pest or weed control at 200 g/ha: 0.2 kg/ha; for pest or weed control at 1000 g/ha: 1 kg/ha; for pest or weed control at 5000 g/ha: 5 kg/ha
Procedure, shortened: as §1

COC(=O)C(C)N1C(=O)C2(CC2)Oc2cc(F)c(N3C(=O)C4=C(CCCC4)C3=O)cc21 (stereo not drawn) [Example 15]
herbicidal activity [1]: excellent herbicidal activity against all tested species | pest or weed control at 200 g/ha (Lolium perenne [2]): 20 to 80% | pest or weed control at 1000 g/ha (Lolium perenne [2]): 80 to 100% | pest or weed control at 5000 g/ha (Lolium perenne [2]): 80 to 100% | pest or weed control at 200 g/ha [3]: 80 to 100% | pest or weed control at 1000 g/ha [3]: 80 to 100% | pest or weed control at 5000 g/ha [3]: 80 to 100% | pest or weed control at 200 g/ha (Lolium perenne [4]): 20 to 80% | pest or weed control at 1000 g/ha (Lolium perenne [4]): 80 to 100% | pest or weed control at 5000 g/ha (Lolium perenne [4]): 80 to 100% | pest or weed control at 200 g/ha [5]: 80 to 100% | pest or weed control at 1000 g/ha [5]: 80 to 100% | pest or weed control at 5000 g/ha [5]: 80 to 100%

O=C1c2ccc(F)cc2C(=O)N1c1cc2c(cc1F)OC1(CC1)C(=O)N2CC1CC1 [Example 26]
herbicidal activity [1]: excellent herbicidal activity against all tested species | pest or weed control at 200 g/ha (Lolium perenne [2]): 80 to 100% | pest or weed control at 1000 g/ha (Lolium perenne [2]): 80 to 100% | pest or weed control at 5000 g/ha (Lolium perenne [2]): 80 to 100% | pest or weed control at 200 g/ha [3]: 80 to 100% | pest or weed control at 1000 g/ha [3]: 80 to 100% | pest or weed control at 5000 g/ha [3]: 80 to 100% | pest or weed control at 200 g/ha (Lolium perenne [4]): 80 to 100% | pest or weed control at 1000 g/ha (Lolium perenne [4]): 80 to 100% | pest or weed control at 5000 g/ha (Lolium perenne [4]): 80 to 100% | pest or weed control at 200 g/ha [5]: 80 to 100% | pest or weed control at 1000 g/ha [5]: 80 to 100% | pest or weed control at 5000 g/ha [5]: 80 to 100%

C#CCN1C(=O)C2(CC2)Oc2cc(F)c(-n3c(=O)cc(C(F)(F)F)n(C)c3=O)cc21 [Example 34, 3-(7-Fluoro-3-oxo-4-(prop-2-yn-1-yl)-3,4-dihydrospiro[benzo[b][1,4]oxazine-2,1′-cyclopropan]-6-yl)-1-methyl-6-(trifluoromethyl)pyrimidine-2,4(1H,3H)-dione]
herbicidal activity [1]: excellent herbicidal activity against all tested species | pest or weed control at 200 g/ha (Lolium perenne [2]): 20 to 80% | pest or weed control at 1000 g/ha (Lolium perenne [2]): 80 to 100% | pest or weed control at 5000 g/ha (Lolium perenne [2]): 80 to 100% | pest or weed control at 200 g/ha [3]: 80 to 100% | pest or weed control at 1000 g/ha [3]: 80 to 100% | pest or weed control at 5000 g/ha [3]: 80 to 100% | pest or weed control at 200 g/ha (Lolium perenne [4]): 20 to 80% | pest or weed control at 1000 g/ha (Lolium perenne [4]): 80 to 100% | pest or weed control at 5000 g/ha (Lolium perenne [4]): 80 to 100% | pest or weed control at 200 g/ha [5]: 80 to 100% | pest or weed control at 1000 g/ha [5]: 80 to 100% | pest or weed control at 5000 g/ha [5]: 80 to 100%

C#CCN1C(=O)C2(CC2)Oc2cc(F)c(/N=c3\sc(=O)n4n3CCCC4)cc21 [Example 31, (Z)-7-Fluoro-6-((3-oxotetrahydro-1H,3H-[1,3,4]thiadiazolo[3,4-a]pyridazin-1-ylidene)amino)-4-(prop-2-yn-1-yl)spiro[benzo[b][1,4]oxazine-2,1′-cyclopropan]-3(4H)-one]
herbicidal activity [1]: excellent herbicidal activity against all tested species | pest or weed control at 200 g/ha (Lolium perenne [2]): 80 to 100% | pest or weed control at 1000 g/ha (Lolium perenne [2]): 80 to 100% | pest or weed control at 5000 g/ha (Lolium perenne [2]): 80 to 100% | pest or weed control at 200 g/ha [3]: 80 to 100% | pest or weed control at 1000 g/ha [3]: 80 to 100% | pest or weed control at 5000 g/ha [3]: 80 to 100% | pest or weed control at 200 g/ha (Lolium perenne [4]): 80 to 100% | pest or weed control at 1000 g/ha (Lolium perenne [4]): 80 to 100% | pest or weed control at 5000 g/ha (Lolium perenne [4]): 80 to 100% | pest or weed control at 200 g/ha [5]: 80 to 100% | pest or weed control at 1000 g/ha [5]: 80 to 100% | pest or weed control at 5000 g/ha [5]: 80 to 100%

C#CCN1C(=O)C2(CC2)Oc2cc(F)c(N3C(=O)c4ccc(C)cc4C3=O)cc21 [Example 8]
herbicidal activity [1]: excellent herbicidal activity against all tested species | pest or weed control at 200 g/ha (Lolium perenne [2]): 20 to 80% | pest or weed control at 1000 g/ha (Lolium perenne [2]): 80 to 100% | pest or weed control at 5000 g/ha (Lolium perenne [2]): 80 to 100% | pest or weed control at 200 g/ha [3]: 80 to 100% | pest or weed control at 1000 g/ha [3]: 80 to 100% | pest or weed control at 5000 g/ha [3]: 80 to 100% | pest or weed control at 200 g/ha (Lolium perenne [4]): 20 to 80% | pest or weed control at 1000 g/ha (Lolium perenne [4]): 80 to 100% | pest or weed control at 5000 g/ha (Lolium perenne [4]): 80 to 100% | pest or weed control at 200 g/ha [5]: 80 to 100% | pest or weed control at 1000 g/ha [5]: 80 to 100% | pest or weed control at 5000 g/ha [5]: 80 to 100%

C#CCN1C(=O)C2(CC2)Oc2cc(F)c(N3C(=O)C4CCCN4C3=O)cc21 (stereo not drawn) [Example 44, 2-(7-Fluoro-3-oxo-4-(prop-2-yn-1-yl)-3,4-dihydrospiro[benzo[b][1,4]oxazine-2,1′-cyclopropan]-6-yl)tetrahydro-1H-pyrrolo[1,2-c]imidazole-1,3(2H)-dione]
herbicidal activity [1]: excellent herbicidal activity against all tested species | pest or weed control at 200 g/ha (Lolium perenne [2]): 80 to 100% | pest or weed control at 1000 g/ha (Lolium perenne [2]): 80 to 100% | pest or weed control at 5000 g/ha (Lolium perenne [2]): 80 to 100% | pest or weed control at 200 g/ha [3]: 80 to 100% | pest or weed control at 1000 g/ha [3]: 80 to 100% | pest or weed control at 5000 g/ha [3]: 80 to 100% | pest or weed control at 200 g/ha (Lolium perenne [4]): < 20% | pest or weed control at 1000 g/ha (Lolium perenne [4]): 20 to 80% | pest or weed control at 5000 g/ha (Lolium perenne [4]): 80 to 100% | pest or weed control at 200 g/ha [5]: 80 to 100% | pest or weed control at 1000 g/ha [5]: 80 to 100% | pest or weed control at 5000 g/ha [5]: 80 to 100%
